The results in this text go back to patent publication US3987175A, “Derivatives of phenoxy isobutyric acid having hypolipemizing and hypocholesterolemizing action” (Pierre Fabre S.A., priority 1974, dated 1976).

Series [1] can be described thus: Hypercholesterolemia induced by the administration of Triton WR 1339. The following applies: male rats; for Cholesterol % variation / Kunkel phenol % variation: Triton 200 mg/kg IV, 18 hours. In kind it is in vivo. As to the method:
3. […] Immediately after the injection, the products to be tested were administered IP and new samples of blood taken 18 hours later (at the maximum of the hypocholesterolemia produced by the Triton). |P being the biochemical parameter under consideration | p Triton + product p Triton + product | - | + 18 hours at the start |1 - × 100 | p Triton p Triton | - | + 18 hours at the start

Series [2] is described as follows: Acute test: cholesterol and triglycerides 4 hours after intraperitoneal administration. The following applies: rats. In kind it is in vivo. The method, then:
The products to be studied were administered intraperitoneally to groups of identical rats; the doses were calculated on a basis of clofibrate in order to make the tests fully comparative. After a period of 4 hours, blood was removed by heart puncture and cholesterol and triglycerides determined.

The nature of series [3]: Test covering 4 days of treatment by oral administration, normal diet (cholesterol, Kunkel's phenol test). The note with it: rats, fifth day. In kind it is in vivo. The source says:
2. Test covering 4 days of treatment by oral administration. In a lot of 30 rats subjected to a normal diet, the blood samplings were effected and the determinations of cholesterol and lipoproteins (Kunkel's phenol test) were made on the fifth day.

Series [4] in a line: Solubility characteristics. In kind it is physicochemical.
Series [5] is described as follows: Acute toxicity, LD50 (method of Miller and Tainter, mortality observed for 4 days). The following applies: mouse, in vivo, mice. The source says: The above-described chemical compounds were submitted to toxicity tests. The acute toxicity of certain compounds determined by the 50% lethal dose is entered in the following Table:
The LD50 was studied in accordance with the method of Miller and Tainter, the mortality of mice being observed for 4 days.

Setting [6] is: clofibrate 200 mg/kg IP, NS (not significant).
Setting [7] is: IP, clofibrate 200 mg/kg, 4 hours.
[8] abbreviates: IP, F 1393 340 mg/kg, 4 hours (comparison with reference products).
The mark [9] stands for this setting: acute dose study, 340 mg/kg, HS (highly significant).
[10] abbreviates: nicotinic acid 100 mg/kg IP, HS (highly significant).
[11] abbreviates: IP, nicotinic acid 140 mg/kg, 4 hours.

Counter-ions that a name gives are not always drawn.

Regarding `CCOC(=O)C(C)(C)Oc1ccc(Cl)cc1` [Clofibrate], in series [1] (setting [6]), the Cholesterol % variation is -15% and the “Kunkel phenol % variation” value is listed as -23%. The “Activity in the Triton test (in words)” value in series [1] (Triton WR 1339) was “inactive”. In series [2] (setting [7]), the “Cholesterol % variation referred to the control” value (from here on “Cholesterol % variation referred”) is -17% and the “Triglycerides % variation referred to the control” value (shortened to “Triglycerides % variation referred”) is “+23%”. In series [3] (clofibrate 200 mg/kg), the “Cholesterol % variation referred” value is reported as -34% and the “Kunkel phenol test % variation referred to the control” value was -29%.

As to `CC(C)(Oc1ccc(Cl)cc1)C(=O)OCCNC(=O)c1cccnc1` [F 1393, Hydrochloride of N-nicotinoyl, O-(p-chloro phenoxy) isobutanoyl ethanol amine], the Cholesterol % variation in series [1] (F 1393 340 mg/kg IP, HS (highly significant)) is given as -68%. In addition, in series [1] (F 1393 340 mg/kg IP, S), the “Kunkel phenol % variation” value was -89%. In series [4] (N-methyl pyrrolidone), the “Solubility in N-methyl pyrrolidone” value stood at 16%. The same compound yielded a Solubility in ethanol in series [4] of 3.5%. Moreover, the “Solubility in propylene glycol” value in series [4] (propylene glycol) was found to be 5%. The solubility in series [4] (water) is 120 mg/mL. For the same compound, the LD50 at 96 h is 3100 mg/kg in series [5] (po, by mouth) and 560 mg/kg in series [5] (ip). The “Cholesterol % variation referred” value in series [2] (setting [8]) is -32%; in series [2] (acute dose study, 50 mg/kg, NS (not significant)), -10%; in series [2] (acute dose study, 100 mg/kg) it was -0%; in series [2] (acute dose study, 200 mg/kg, HS (highly significant)) it was -22%; in series [2] (setting [9]), -35%; in series [3] (F 1393 340 mg/kg), -44%. The “Triglycerides % variation referred” value in series [2] (setting [8]) is -43%; in series [2] (acute dose study, 50 mg/kg, HS (highly significant)), -26%; in series [2] (acute dose study, 100 mg/kg, HS (highly significant)), -29%; in series [2] (acute dose study, 200 mg/kg, S), -19%; in series [2] (setting [9]) it was -43%. The “Kunkel phenol test % variation referred to the control” value in series [3] (F 1393 340 mg/kg) was -52%.

Regarding `CC(C)(Oc1ccc(Cl)cc1)C(=O)OCCNC(=O)c1ccc[n+]([O-])c1` [F 1416, N-oxide of N-nicotinoyl, O-(parachloro phenoxy) isobutanoyl ethanol amine], the Solubility in ethanol in series [4] stood at 3%. The “Solubility in propylene alcohol” value in series [4] (propylene alcohol) is on record as 1%. Further, in series [4] (water), the “Solubility in water (in words)” value was “Insoluble”. The LD50 at 96 h in series [5] (po, by mouth) was 2400 mg/kg; in series [5] (ip) it was not below 1000 mg/kg.

With `O=C(O)c1cccnc1` [Nicotinic acid, nicotinic acid], in series [1] (setting [10]), the Cholesterol % variation is on record as -67% and the “Kunkel phenol % variation” value is listed as -75%. In series [2] (setting [11]), the “Cholesterol % variation referred” value is -25% and the “Triglycerides % variation referred” value is reported as -47%. For the same compound, the “Cholesterol % variation referred” value in series [3] (nicotinic acid 100 mg/kg) is recorded as -22%.
